We go through 23 molecules from PubChem BioAssay (NCI).

What all share (test): NCI-60 cell line screen, 48 h
The subject of test [1] is MALME-3M melanoma.
Test [2] deals with HT29 colon.
The test system of test [3] is K-562 leukemia.
Test [4] has as its system HCT-15 colon.
Test [5] has as its system SK-MEL-5 melanoma.
Test [6] deals with SF-295 CNS.
In test [7] the test system is EKVX NSCLC.
Test [8] concerns NCI-H226 lung.
For test [9], the system named is HOP-92 NSCLC.
Test [10] concerns OVCAR-4 ovarian.

Each structure is given as a SMILES string.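 Tested at 5 concentrations; 48 h exposure; 96-well plates; endpoints linearly interpolated, else capped at highest concentration. At the TGI there is no net growth.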

`O=C(NCc1cccnc1)C(=O)NCc1cccnc1`: the TGI in [1], in test [2], in [3], in test [4], in [5] and in [6] was > 100 µM each time. Also, the TGI in [7], in [8], in [9] and in test [10] was > 100 µM throughout.

Take `O=C(O)CCCc1ccc2c(c1)CC1(C2)Cc2ccc(CCCC(=O)O)cc2C1`: the TGI in [1], in test [2], in [3], in [4], in [5] and in [6] was > 100 µM throughout. Further, the TGI in test [7], in test [8], in test [9] and in [10] was > 100 µM throughout.

On to `O=C1C(=Cc2ccccc2[N+](=O)[O-])N=C(c2ccccc2)N1n1c(-c2ccccc2)nc2ccccc2c1=O`, for which the TGI in test [1] was 91.7 µM; in test [2], > 100 µM; in test [3], > 100 µM; in test [4], > 100 µM; in test [5] it was > 100 µM; in [6], > 100 µM. Besides, the TGI in test [7] was > 100 µM; in test [8] it was 85.3 µM; in test [9], 49.3 µM; in [10], > 100 µM.

With `CC(C)c1nccn1Cc1ccc(Cl)cc1Cl`, the TGI in test [1] is > 100 µM; in test [2], > 100 µM; in test [3], > 100 µM; in test [4], > 100 µM; in test [5], 34.9 µM; in test [6] it was > 100 µM. The TGI in [7] is > 100 µM; in test [8], 93.5 µM; in test [9], > 100 µM; in [10], > 100 µM.

As to `C=C(C(=O)OC)[C@H]1CC/C(C)=C/CC/C(C)=C/CC[C@@]2(C)O[C@@H]2C1`, the TGI in [1] was found to be 63.3 µM; in [2], 34.4 µM; in test [3] it was 25.7 µM; in test [4], 31.7 µM; in test [5] it was 22 µM; in test [6], 29.6 µM. For the same molecule, the TGI in [7] is 39.5 µM; in test [8] it was 44.4 µM; in test [9], 35.1 µM; in test [10] it was > 100 µM.

Consider `O=c1oc2ccccc2c(O)c1Cc1cccc(Cc2c(O)c3ccccc3oc2=O)c1`, for which the TGI in test [1], in [2], in [3], in [4], in test [5] and in [6] was > 100 µM throughout. Besides, the TGI in test [7], in test [8], in test [9] and in [10] was > 100 µM in each case.

As to `N#Cc1c(C#N)c(-c2ccccc2)n(/N=C\c2ccccc2)c1N`, the TGI in test [1] is > 100 µM; in [2], 83.1 µM; in test [3] it was > 100 µM; in test [4], > 100 µM; in [5], 32.8 µM; in test [6] it was 65.8 µM. Also, the TGI came to 63.9 µM in test [7], 68.7 µM in [8], 68.4 µM in test [9] and 59.9 µM in test [10].

Turning to `c1ccc(-c2[nH]c(-c3ccccc3)c(-c3cnccn3)c2-c2cnccn2)cc1`, the TGI in test [1], in test [2], in test [3], in test [4], in test [5] and in [6] was > 100 µM throughout. Moreover, the TGI in test [7], in test [8], in test [9] and in [10] was > 100 µM in each case.

Regarding `c1ccc(CNc2ncnc3n[nH]nc23)cc1`, the TGI in test [1], in test [2], in [3], in test [4], in test [5] and in test [6] was > 100 µM each time. In addition, the TGI in test [7], in [8], in test [9] and in [10] was > 100 µM throughout.

For `COc1ccc(C(C)NNC(=O)c2ccncc2)cc1F` (stereo not given), the TGI in test [1], in test [2], in [3], in [4], in test [5] and in [6] was > 100 µM in each case. Further, the TGI in test [7], in test [8], in test [9] and in test [10] was > 100 µM each time.

With `O=C(/C=C/c1ccccc1)CCc1c(O)c2ccccc2oc1=O`, the TGI in test [1], in [2], in [3], in test [4], in test [5] and in test [6] was > 100 µM throughout. Further, the TGI in test [7], in test [8], in test [9] and in [10] was > 100 µM throughout.

Consider `CN(C)c1ccc(/C=C2\C[C@H]3[C@@H]4CCc5cc(O)ccc5[C@H]4CC[C@]3(C)C2=O)cc1`, for which the TGI in test [1], in test [2], in test [3], in test [4], in test [5] and in test [6] was > 100 µM in each case. In addition, the TGI is > 100 µM in test [7], 67.3 µM in test [8], > 100 µM in test [9] and > 100 µM in [10].

For the molecule `CCOC(=O)c1cn(C)nc1N/C(C)=C\C(=O)c1ccccc1`, the TGI in test [1], in [2], in [3], in test [4], in test [5] and in [6] was > 100 µM throughout. Moreover, the TGI in test [7], in test [8], in test [9] and in [10] was > 100 µM each time.

In the case of `COC(=O)C1=C(C)NC2(C)OC(C)(O)C(C(C)=O)C12C(C)=O` (stereo not given), the TGI in test [1] was 50.9 µM; in [2] it was > 100 µM; in [3], > 100 µM; in test [4] it was > 100 µM; in test [5], > 100 µM; in [6] it was > 100 µM. The TGI was > 100 µM in test [7], 53.1 µM in test [8], 89.2 µM in [9] and > 100 µM in test [10].

Turning to `Nc1ccc(-c2nc3ccccc3s2)cc1`, the TGI was 45 µM in [1]; 40.1 µM in [2]; 58.4 µM in test [3]; 40.4 µM in test [4]; 50.1 µM in test [5]; > 74.9 µM in test [6]. For the same molecule, the TGI in [7] was 87.4 µM; in test [8] it was 49 µM; in test [9], 31.9 µM; in [10], 35.6 µM.

On to `S=C(Nc1ccc2c(c1)Cc1ccccc1-2)Nc1ccc2c(c1)Cc1ccccc1-2`, for which the TGI in test [1] is > 100 µM; in test [2], > 100 µM; in [3], 74.5 µM; in test [4], > 100 µM; in [5], > 100 µM; in test [6] it was > 100 µM. The TGI in test [7], in test [8], in test [9] and in test [10] was > 100 µM each time.

Regarding `COC(=O)C[C@H](CCSC)NC(=O)C[C@H](CCSC)NC(=O)C[C@H](CCSC)NC(=O)OC(C)(C)C`, the TGI is > 100 µM in test [1]; > 100 µM in test [2]; > 100 µM in test [3]; > 100 µM in test [4]; > 100 µM in [5]; 51.4 µM in test [6]. Also, the TGI in test [7] is > 100 µM; in [8] it was > 100 µM; in [9] it was 36.9 µM; in test [10], 55.9 µM.

As to `COc1ccc(C2NC(=O)Nc3c2c(=O)oc2c3ccc3ccccc32)cc1` (stereo not given), the TGI in test [1], in test [2], in test [3], in test [4], in test [5] and in [6] was > 100 µM throughout. Besides, the TGI in test [7] was 96.8 µM; in [8], 96.9 µM; in test [9] it was > 100 µM; in test [10], > 100 µM.

As to `COC1=CC(=O)c2c(cc(COP(=O)(N(C)CCBr)N(C)CCBr)n2C)C1=O`, the TGI was 2.95 µM in test [1]; 1.42 µM in test [2]; > 100 µM in test [3]; 2.28 µM in test [4]; 2.33 µM in test [5]; 3.62 µM in test [6]. The TGI in test [7] was 6.55 µM; in test [8] it was 1.43 µM; in [9] it was 7.54 µM; in [10], 20.4 µM.

Turning to `CC(=O)Nc1ccc(/C=C(\NC(=O)c2ccccc2)C(=O)NNS(=O)(=O)c2ccc(C)cc2)cc1`, the TGI was > 100 µM in [1]; > 100 µM in test [2]; > 100 µM in [3]; 41.1 µM in [4]; > 100 µM in test [5]; > 100 µM in [6]. Moreover, the TGI in test [7], in test [8], in test [9] and in [10] was > 100 µM each time.

In the case of `Cc1nnc2sc(-c3ccc([N+](=O)[O-])o3)nn12`, the TGI in [1] amounted to 14.3 µM; in test [2], 34.7 µM; in [3] it was 26.1 µM; in test [4], 18.2 µM; in test [5] it was 24.4 µM; in test [6], 31 µM. In addition, the TGI worked out at 37.7 µM in test [7], 34.5 µM in [8], 35.2 µM in [9] and 30.7 µM in test [10].

As for `COc1ccc(N2C(=O)/C(=C/c3ccc(N(CCC#N)CCC#N)cc3)N=C2c2ccccc2)c(OC)c1`, the TGI in test [1] is > 100 µM; in [2], > 100 µM; in test [3], 87 µM; in [4] it was > 100 µM; in [5] it was > 100 µM; in test [6], > 100 µM. Further, the TGI in test [7] was > 100 µM; in [8], > 100 µM; in [9] it was 68.9 µM; in test [10] it was > 100 µM.

With `N#Cc1c(-c2ccc(Cl)cc2)cc(-c2nc3ccccc3[nH]2)nc1N`, the TGI turned out to be 32.5 µM in [1]; 25.5 µM in test [2]; 54.9 µM in [3]; 36.3 µM in [4]; 20.6 µM in test [5]; 49.1 µM in test [6]. For the same molecule, the TGI in [7] was 46.1 µM; in [8] it was 28 µM; in [9] it was 26.3 µM; in [10] it was 36.2 µM.
